PubChem BioAssay AID1919016 (Molecular Pharmacology Branch, DTP, NCI, 2023)

Tested on: NCI-H196 complex spheroid growth, percent test/control
Assay: Anticancer human tumor NCI-H196 cell line growth inhibition [AhR];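 further: seven days of drug exposure starting three days after plating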;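 on viability, T/C: 100% = DMSO vehicle control wells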
Conditions: for IC50: curve of first compound; for viability, T/C: stronger effect = lower value; active means viability on the fitted dose curve at most 10% of control; inactive means the rest
In short: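 Complex tumor spheroids co-cultured with HUVEC and human MSC stroma; AhR antagonists tested in combination with standard-of-care and investigational agents. Top concentration at or near clinical Cmax (else 10 microM), half-log dilutions; growth expressed as percent test/control.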

[1] = second compound 0.1 µM, first compound 0.000949 µM
[2] = second compound 0.1 µM, first compound 0.003 µM
[3] = second compound 0.1 µM, first compound 0.00949 µM
[4] = second compound 0.1 µM, first compound 0.03 µM
[5] = second compound 0.1 µM, first compound 0.0949 µM
[6] = second compound 0.1 µM, first compound 0.3 µM
[7] = second compound 0.316 µM, first compound 0.000949 µM
[8] = second compound 0.316 µM, first compound 0.003 µM
[9] = second compound 0.316 µM, first compound 0.00949 µM
[10] = second compound 0.316 µM, first compound 0.03 µM
[11] = second compound 0.316 µM, first compound 0.0949 µM
[12] = second compound 0.316 µM, first compound 0.3 µM
[13] = second compound 1 µM, first compound 0.000949 µM
[14] = second compound 1 µM, first compound 0.003 µM
[15] = second compound 1 µM, first compound 0.00949 µM
[16] = second compound 1 µM, first compound 0.03 µM
[17] = second compound 1 µM, first compound 0.0949 µM
[18] = second compound 1 µM, first compound 0.3 µM
[19] = second compound 3.16 µM, first compound 0.000949 µM
[20] = second compound 3.16 µM, first compound 0.003 µM
[21] = second compound 3.16 µM, first compound 0.00949 µM
[22] = second compound 3.16 µM, first compound 0.03 µM
[23] = second compound 3.16 µM, first compound 0.0949 µM
[24] = second compound 3.16 µM, first compound 0.3 µM
[25] = second compound 10 µM, first compound 0.000949 µM
[26] = second compound 10 µM, first compound 0.003 µM
[27] = second compound 10 µM, first compound 0.00949 µM
[28] = second compound 10 µM, first compound 0.03 µM
[29] = second compound 10 µM, first compound 0.0949 µM
[30] = second compound 10 µM, first compound 0.3 µM

CC(C)CC(NC(=O)C(Cc1ccccc1)NC(=O)c1cnccn1)B(O)O (stereo not given) + Cc1ccccc1N=Nc1ccc(NC(=O)c2ccnn2C)c(C)c1
inactive: viability, T/C [1] 97.6% | viability, T/C [2] 101% | viability, T/C [3] 74.9% | viability, T/C [7] 93.6% | viability, T/C [8] 96.4% | viability, T/C [9] 83.1% | viability, T/C [13] 90.8% | viability, T/C [14] 101% | viability, T/C [15] 83% | viability, T/C [19] 97.4% | viability, T/C [20] 95.8% | viability, T/C [21] 83.8% | viability, T/C [25] 89.2% | viability, T/C [26] 90.5% | viability, T/C [27] 85.1% | viability, T/C [28] 14.6%
15.6 nM: IC50 (second compound 0.316 µM)
16.8 nM: IC50 (second compound 10 µM)
15.8 nM: IC50 (second compound 1 µM)
15.9 nM: IC50 (second compound 3.16 µM)
14.4 nM: IC50 (second compound 0.1 µM)
active: viability, T/C [4] 6.41% | viability, T/C [5] 4.21% | viability, T/C [6] 5.04% | viability, T/C [10] 6.9% | viability, T/C [11] 4.16% | viability, T/C [12] 3.98% | viability, T/C [16] 8.93% | viability, T/C [17] 4.78% | viability, T/C [18] 6.96% | viability, T/C [22] 8.44% | viability, T/C [23] 3.34% | viability, T/C [24] 3.4% | viability, T/C [29] 8.98% | viability, T/C [30] 5.84%

CCc1c2c(nc3ccc(O)cc13)-c1cc3c(c(=O)n1C2)COC(=O)[C@]3(O)CC + Cc1ccccc1N=Nc1ccc(NC(=O)c2ccnn2C)c(C)c1
> 300 nM: IC50 (second compound 0.1 µM) | IC50 (second compound 0.316 µM) | IC50 (second compound 1 µM) | IC50 (second compound 3.16 µM) | IC50 (second compound 10 µM)
inactive: viability, T/C [1] 97% | viability, T/C [2] 101% | viability, T/C [3] 103% | viability, T/C [4] 95.3% | viability, T/C [5] 93.3% | viability, T/C [6] 81.2% | viability, T/C [7] 96.3% | viability, T/C [8] 103% | viability, T/C [9] 106% | viability, T/C [10] 89.7% | viability, T/C [11] 89.2% | viability, T/C [12] 85.2% | viability, T/C [13] 89.8% | viability, T/C [14] 106% | viability, T/C [15] 93.8% | viability, T/C [16] 100% | viability, T/C [17] 99.2% | viability, T/C [18] 70.7% | viability, T/C [19] 89.4% | viability, T/C [20] 91.3% | viability, T/C [21] 103% | viability, T/C [22] 88.9% | viability, T/C [23] 82.7% | viability, T/C [24] 74.3% | viability, T/C [25] 89% | viability, T/C [26] 108% | viability, T/C [27] 93.3% | viability, T/C [28] 94.9% | viability, T/C [29] 96% | viability, T/C [30] 76.1%

COc1cc(Nc2ncc3c(n2)-c2ccc(Cl)cc2C(c2c(F)cccc2OC)=NC3)ccc1C(=O)O + Cc1ccccc1N=Nc1ccc(NC(=O)c2ccnn2C)c(C)c1
inactive: viability, T/C (second compound 0.1 µM, first compound 0.0316 µM) 83.2% | viability, T/C (second compound 0.1 µM, first compound 0.1 µM) 94.4% | viability, T/C (second compound 0.1 µM, first compound 0.316 µM) 108% | viability, T/C (second compound 0.1 µM, first compound 1 µM) 107% | viability, T/C (second compound 0.1 µM, first compound 3.16 µM) 123% | viability, T/C (second compound 0.1 µM, first compound 10 µM) 116% | viability, T/C (second compound 0.316 µM, first compound 0.0316 µM) 83.3% | viability, T/C (second compound 0.316 µM, first compound 0.1 µM) 89.3% | viability, T/C (second compound 0.316 µM, first compound 0.316 µM) 106% | viability, T/C (second compound 0.316 µM, first compound 1 µM) 118% | viability, T/C (second compound 0.316 µM, first compound 3.16 µM) 119% | viability, T/C (second compound 0.316 µM, first compound 10 µM) 115% | viability, T/C (second compound 1 µM, first compound 0.0316 µM) 85.5% | viability, T/C (second compound 1 µM, first compound 0.1 µM) 88.9% | viability, T/C (second compound 1 µM, first compound 0.316 µM) 95.9% | viability, T/C (second compound 1 µM, first compound 1 µM) 94.2% | viability, T/C (second compound 1 µM, first compound 3.16 µM) 111% | viability, T/C (second compound 1 µM, first compound 10 µM) 104% | viability, T/C (second compound 3.16 µM, first compound 0.0316 µM) 85.4% | viability, T/C (second compound 3.16 µM, first compound 0.1 µM) 86% | viability, T/C (second compound 3.16 µM, first compound 0.316 µM) 102% | viability, T/C (second compound 3.16 µM, first compound 1 µM) 97.5% | viability, T/C (second compound 3.16 µM, first compound 3.16 µM) 109% | viability, T/C (second compound 3.16 µM, first compound 10 µM) 117% | viability, T/C (second compound 10 µM, first compound 0.0316 µM) 89.8% | viability, T/C (second compound 10 µM, first compound 0.1 µM) 88.4% | viability, T/C (second compound 10 µM, first compound 0.316 µM) 96.3% | viability, T/C (second compound 10 µM, first compound 1 µM) 91.1% | viability, T/C (second compound 10 µM, first compound 3.16 µM) 108% | viability, T/C (second compound 10 µM, first compound 10 µM) 104%
> 10000 nM: IC50 (second compound 0.1 µM) | IC50 (second compound 0.316 µM) | IC50 (second compound 1 µM) | IC50 (second compound 3.16 µM) | IC50 (second compound 10 µM)
